In US10023544B2, “Heterocyclic compound” (Takeda Pharmaceutical Company Limited, priority 2014, dated 2018):
Where a name gives a salt, the structure may show the parent alone.

biological target: T1, Human recombinant enteropeptidase (Homo sapiens, UniProt P98073); experiment: Human enteropeptidase inhibitory activity; assay type: biochemical; conditions: 3.3 uM test compound; fluorescence intensity 2 hours after start of reaction; 3.3 µM
T1 construct: purchased ITSI-Biosciences, LLC #REN-260
Experimental: Human recombinant enteropeptidase (#REN-260, ITSI-Biosciences, LLC) was diluted with an assay buffer (50 mM Tricine (pH 8.0), 0.01 (w/v) % Tween 20, 10 mM CaCl2) to prepare a 24 mU/mL enzyme solution. Subsequently, 5FAM-Abu-Gly-Asp-Asp-Asp-Lys-Ile-Val-Gly-Gly-Lys(CPQ2)-Lys-Lys-NH2 (purity: 97.2%, CPC Scientific, Inc.) produced according to a synthesis method known per se was diluted with an assay buffer to prepare a 2.1 uM (“u” represents “micro”) substrate solution. Each test compound was dissolved in DMSO to prepare a 1 mM solution, which was then diluted 100-fold with an assay buffer to prepare a compound solution. The compound solution (5 uL/well) and the substrate solution (5 uL/well) were added to a 384-well black plate (#784076, Greiner Bio-One) and mixed. Then, the enzyme solution (5 uL/well) was added to the plate and mixed to start reaction. The fluorescence intensity was measured at an excitation wavelength of 485 nm and a fluorescence wavelength of 535 nm using a fluorescence plate reader EnVision (PerkinElmer Inc.). Also, the same reaction as above was performed except that the test compound was not added (test compound non-supplemented group). In addition, the same reaction as above was performed except that neither the test compound nor the enzyme was added (control group). The inhibition rate was calculated from the fluorescence intensity 2 hours after the start of the reaction according to the following equation: Inhibition rate (%)=(1−(Fluorescence intensity of the test compound supplemented group−Fluorescence intensity of the control group)/(Fluorescence intensity of the test compound non-supplemented group−Fluorescence intensity of the control group))×100

T1 sequence (P98073 whole entry): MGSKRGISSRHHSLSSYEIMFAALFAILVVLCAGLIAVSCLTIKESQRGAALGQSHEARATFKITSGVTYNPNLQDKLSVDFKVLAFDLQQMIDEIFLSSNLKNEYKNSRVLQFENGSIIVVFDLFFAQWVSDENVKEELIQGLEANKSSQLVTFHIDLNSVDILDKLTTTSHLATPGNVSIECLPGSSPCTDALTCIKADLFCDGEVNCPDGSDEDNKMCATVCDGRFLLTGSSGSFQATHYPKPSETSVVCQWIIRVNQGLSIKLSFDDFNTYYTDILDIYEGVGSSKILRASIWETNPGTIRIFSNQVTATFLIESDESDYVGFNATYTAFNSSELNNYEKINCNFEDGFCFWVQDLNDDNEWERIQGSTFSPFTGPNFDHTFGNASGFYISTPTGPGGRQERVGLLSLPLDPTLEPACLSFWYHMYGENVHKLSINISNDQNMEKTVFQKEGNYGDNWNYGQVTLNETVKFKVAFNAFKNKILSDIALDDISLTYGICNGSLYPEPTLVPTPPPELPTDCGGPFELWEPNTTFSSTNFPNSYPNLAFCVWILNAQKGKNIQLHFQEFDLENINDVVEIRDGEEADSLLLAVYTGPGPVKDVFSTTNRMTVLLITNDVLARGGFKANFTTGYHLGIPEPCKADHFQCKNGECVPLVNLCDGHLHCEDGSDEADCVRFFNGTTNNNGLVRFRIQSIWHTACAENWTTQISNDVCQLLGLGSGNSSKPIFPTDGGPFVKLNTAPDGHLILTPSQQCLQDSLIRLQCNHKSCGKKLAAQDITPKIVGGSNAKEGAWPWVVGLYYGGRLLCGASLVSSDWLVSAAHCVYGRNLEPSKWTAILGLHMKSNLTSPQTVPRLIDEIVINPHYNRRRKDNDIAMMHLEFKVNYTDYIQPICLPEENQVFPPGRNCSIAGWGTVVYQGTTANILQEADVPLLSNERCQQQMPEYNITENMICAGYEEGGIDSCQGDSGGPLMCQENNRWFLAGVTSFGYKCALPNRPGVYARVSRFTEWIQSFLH

| Inhibition rate at 3.3 uM (%) | Structure (SMILES) |
| --- | --- |
| 100 | CC(C)(C)C1CCC(c2cc(OC(=O)c3ccc(NC(=N)N)cc3)cc(C3=NOC(CC(=O)O)(C(=O)O)C3)c2)CC1 (stereo not drawn) [Example 13, 3-(3-(4-tert-butylcyclohexyl)-5-((4-carbamimidamidobenzoyl)oxy)phenyl)-5-(carboxymethyl)-4,5-dihydro-1,2-oxazole-5-carboxylic acid (cis or trans form)] |

same assay, conditions: 3.3 uM test compound; fluorescence intensity 2 hours after start of reaction; read-out: Inhibition rate at 3.3 uM (%)

| Structure (SMILES) | inhibition at 3.3 µM [%] |
| --- | --- |
| Cc1ccc(OC(=O)c2ccc(NC(=N)N)cc2)cc1C1=NOC(CC(=O)O)(C(=O)O)C1 (centres unmarked) [Example 3, 3-(5-((4-Carbamimidamidobenzoyl)oxy)-2-methylphenyl)-5-(carboxymethyl)-4,5-dihydro-1,2-oxazole-5-carboxylic acid trifluoroacetate] | 101 |
| CC(C)(C)C1CCC(c2ccc(OC(=O)c3ccc(NC(=N)N)cc3)cc2C2=NOC(CC(=O)O)(C(=O)O)C2)CC1 (centres unmarked) [Example 10, 3-(2-(4-tert-butylcyclohexyl)-5-((4-carbamimidamidobenzoyl)oxy)phenyl)-5-(carboxymethyl)-4,5-dihydro-1,2-oxazole-5-carboxylic acid] | 101 |
| N=C(N)Nc1ccc(C(=O)Oc2cc(CCC(=O)O)cc(C3=NOC(CC(=O)O)(C(=O)O)C3)c2)cc1 (centres unmarked) [Example 14, 3-(3-((4-Carbamimidamidobenzoyl)oxy)-5-(2-carboxyethyl)phenyl)-5-(carboxymethyl)-4,5-dihydro-1,2-oxazole-5-carboxylic acid trifluoroacetate] | 100 |
| N=C(N)Nc1ccc(C(=O)Oc2ccc(CCC(=O)O)c(C3=NOC(CC(=O)O)(C(=O)O)C3)c2)cc1 (centres unmarked) [Example 15, 3-(5-((4-carbamimidamidobenzoyl)oxy)-2-(2-carboxyethyl)phenyl)-5-(carboxymethyl)-4,5-dihydro-1,2-oxazole-5-carboxylic acid] | 101 |
| Cc1c(OC(=O)c2ccc(NC(=N)N)cc2)cccc1C1=NOC(CC(=O)O)(C(=O)O)C1 (centres unmarked) [Example 16, 3-(3-((4-carbamimidamidobenzoyl)oxy)-2-methylphenyl)-5-(carboxymethyl)-4,5-dihydro-1,2-oxazole-5-carboxylic acid] | 100 |
| Cc1ccc(C2=NOC(CC(=O)O)(C(=O)O)C2)cc1OC(=O)c1ccc(NC(=N)N)cc1 (centres unmarked) [Example 17, 3-(3-((4-carbamimidamidobenzoyl)oxy)-4-methylphenyl)-5-(carboxymethyl)-4,5-dihydro-1,2-oxazole-5-carboxylic acid] | 87 |
| N=C(N)Nc1ccc(C(=O)Oc2ccc(CCC(=O)N[C@@H](CC(=O)O)C(=O)O)c(C3=NOC(CC(=O)O)(C(=O)O)C3)c2)cc1 (stereo partly drawn) [Example 18, N-(3-(4-((4-Carbamimidamidobenzoyl)oxy)-2-(5-carboxy-5-(carboxymethyl)-4,5-dihydro-1,2-oxazol-3-yl)phenyl)propanoyl)-L-aspartic acid trifluoroacetate] | 100 |
| N=C(N)Nc1ccc(C(=O)Oc2cc(CCC(=O)N[C@@H](CC(=O)O)C(=O)O)cc(C3=NOC(CC(=O)O)(C(=O)O)C3)c2)cc1 (stereo partly drawn) [Example 19, N-(3-(3-((4-carbamimidamidobenzoyl)oxy)-5-(5-carboxy-5-(carboxymethyl)-4,5-dihydro-1,2-oxazol-3-yl)phenyl)propanoyl)-L-aspartic acid] | 101 |
| N=C(N)Nc1ccc(C(=O)Oc2ccc(C3CCN(C(=O)CCC(=O)N[C@@H](CC(=O)O)C(=O)O)CC3)c(C3=NOC(CC(=O)O)(CC(=O)O)C3)c2)cc1 [Example 21, N-(4-(4-(2-(5,5-bis(carboxymethyl)-4,5-dihydro-1,2-oxazol-3-yl)-4-((4-carbamimidamidobenzoyl)oxy)phenyl)piperidin-1-yl)-4-oxobutanoyl)-L-aspartic acid] | 100 |

Further lines, results first:

| inhibition at 3.3 µM [%] | Structure (SMILES) |
| --- | --- |
| 101 | N=C(N)Nc1ccc(C(=O)Oc2ccc(C3=NOC(CC(=O)O)(C(=O)O)C3)cc2)cc1 (centres unmarked) [Example 2, 3-(4-((4-carba-mimidamidobenzoyl)oxy)phenyl)-5-(carboxymethyl)-4,5-dihydro-1,2-oxazole-5-carboxylic acid] |
| 101 | N=C(N)Nc1ccc(C(=O)Oc2cccc(C3=NOC(CCC(=O)O)(CCC(=O)O)C3)c2)cc1 [Example 4, 3,3′-(3-(3-((4-carba-mimidamidobenzoyl)oxy)phenyl)-4,5-dihydro-1,2-oxazole-5,5-diyl)dipropanoic acid] |
| 100 | N=C(N)Nc1ccc(C(=O)Oc2cccc(C3=NOC(CC(=O)O)(CC(=O)O)C3)c2)cc1 [Example 6, 2,2′-(3-(3-((4-Carbamimidamidobenzoyl)oxy)phenyl)-4,5-dihydro-1,2-oxazole-5,5-diyl)diacetic acid] |
| 101 | N=C(N)Nc1ccc(C(=O)Oc2ccc(C3CCN(C(=O)CCC(=O)O)CC3)c(C3=NOC(CC(=O)O)(CC(=O)O)C3)c2)cc1 [Example 7, 4-(4-(2-(5,5-Bis(carboxymethyl)-4,5-dihydro-1,2-oxazol-3-yl)-4-((4-carbamimidamidobenzoyl)oxy)phenyl)piperidin-1-yl)-4-oxobutanoic acid trifluoroacetate] |
| 101 | N=C(N)Nc1ccc(C(=O)Oc2ccc(C3CCCCC3)c(C3=NOC(CC(=O)O)(C(=O)O)C3)c2)cc1 (centres unmarked) [Example 8, 3-(5-((4-Carbamimidamidobenzoyl)oxy)-2-cyclohexylphenyl)-5-(carboxymethyl)-4,5-dihydro-1,2-oxazole-5-carboxylic acid trifluoroacetate] |
| 101 | N=C(N)Nc1ccc(C(=O)Oc2ccc(-c3ccccc3)c(C3=NOC(CC(=O)O)(C(=O)O)C3)c2)cc1 (centres unmarked) [Example 9, 3-(4-((4-carbamimidamidobenzoyl)oxy)biphenyl-2-yl)-5-(carboxymethyl)-4,5-dihydro-1,2-oxazole-5-carboxylic acid] |
| 100 | Cc1cc(OC(=O)c2ccc(NC(=N)N)cc2)cc(C2=NOC(CC(=O)O)(C(=O)O)C2)c1 (centres unmarked) [Example 11, 3-(3-((4-Carbamimidamidobenzoyl)oxy)-5-methylphenyl)-5-(carboxymethyl)-4,5-dihydro-1,2-oxazole-5-carboxylic acid trifluoroacetate] |
| 101 | CC(C)(C)C1CCC(c2cc(OC(=O)c3ccc(NC(=N)N)cc3)cc(C3=NOC(CC(=O)O)(C(=O)O)C3)c2)CC1 (stereo not drawn) [Example 12, 3-(3-(4-tert-butylcyclohexyl)-5-((4-carbamimidamidobenzoyl)oxy)phenyl)-5-(carboxymethyl)-4,5-dihydro-1,2-oxazole-5-carboxylic acid (trans or cis form)] |
| 100 | N=C(N)Nc1ccc(C(=O)Oc2ccc(CCC(=O)N[C@@H](CC(=O)O)C(=O)O)c(C3=NOC(CC(=O)O)(CC(=O)O)C3)c2)cc1 [Example 20, N-(3-(2-(5,5-bis(carboxymethyl)-4,5-dihydro-1,2-oxazol-3-yl)-4-((4-carbamimidamidobenzoyl)oxy)phenyl)propanoyl)-L-aspartic acid] |
| 101 | N=C(N)Nc1ccc(C(=O)Oc2ccc(C3CCN(CCC(=O)O)CC3)c(C3=NOC(CC(=O)O)(CC(=O)O)C3)c2)cc1 [Example 22, 3-(4-(2-(5,5-Bis(carboxymethyl)-4,5-dihydro-1,2-oxazol-3-yl)-4-((4-carbamimidamidobenzoyl)oxy)phenyl)piperidin-1-yl)propanoic acid ditrifluoroacetate] |
